Measurements reported in patent US4175081A, “5-Substituted thiadiazole ureas” (priority 1977, dated 1979).

Key:
Experiment in all cases: Post-emergence herbicide test
Corn (CN) = assay type: in vivo; settings: Zea mays, 336 h, two weeks after treatment
Outline: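 Greenhouse seedlings grown in potting soil and sprayed post-emergence at 8 lbs compound/acre (formulations also made for 4 lbs/acre) in 38 gallons/acre spray volume. Watering by sub-irrigation only. Injury or control rated visually two weeks after treatment.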

Bean (BN) = assay type: in vivo, Phaseolus vulgaris var. Black Valentine; settings: Phaseolus vulgaris, post-emergence, 336 h, two weeks after treatment
Outline: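 Snapbean (Phaseolus vulgaris var. Black Valentine) was tested post-emergence. Four seeds were sown in 3' plastic pots of potting soil at a depth equal to the seed diameter, then sub-irrigated in greenhouse trays. Planting dates were staggered so plants were sprayed once primary leaves had expanded, with the growing point at the primary leaf nodes.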

Turnip (TP) = assay type: in vivo, Brassica sp.; settings: Brassica rapa, post-emergence, 336 h, two weeks after treatment
Outline: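 A greenhouse post-emergence herbicide test on turnip. Seeds were sown on the surface of potting soil in 3' plastic pots, lightly covered with screened soil and watered from below. Planting was timed so seedlings had 1 or 2 true leaves above the cotyledons at spraying, done in a hood with a fixed nozzle. Control or injury was scored by eye after two weeks.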

Crabgrass (CG) = assay type: in vivo, Digitaria sanquinalis; settings: Digitaria sanguinalis, post-emergence, 336 h, two weeks after treatment
Outline: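 Crabgrass (Digitaria sanquinalis) was surface seeded individually in 3' plastic pots of potting soil, covered with screened soil, and watered by sub-irrigation in greenhouse trays. Planting was staggered so seedlings reached the target stage together. Post-emergence sprays were applied in a hood with a removable belt and fixed nozzle, and control was visually rated two weeks after treatment.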

Amaranth pigweed (PW) = assay type: in vivo, Amaranthus retroflexus; settings: 336 h, two weeks after treatment
Protocol: Amaranth pigweed (PW)--Amaranthus retroflexus
All crop and weed species were planted individually in 3' plastic pots containing potting soil. Four seeds each of corn, cotton, and snapbeans were seeded to a depth equal to the diameter of the seed. All other species were surface seeded and sprinkled with screened soil in an amount sufficient to cover the seed. Immediately after planting, all pots were watered by sub-irrigation in greenhouse trays. Pots for the pre-emergence phase were seeded one day before treatment.
Planting dates for the post-emergence phase were varied so that all seedlings would reach the desired stage of development simultaneously. The proper stage of seedling development for treatment in the post-emergence phase is as follows:
Pigweed and turnips: 1 or 2 true leaves above visible cotyledons.
Compounds were tested at rates of application equivalent to 8 lbs. of actual compound per acre in a spray volume of 38 gallons per acre. Spray hood constants required to deliver the above volume are as follows:
Formulations for spray applications were prepared in 50 ml volumes with the following three components:
Formulations for the 4 lbs/acre rate were prepared by adjusting the amount of active ingredient accordingly.
Spray applications were made in a hood containing a removable belt and fixed spray nozzle. For passage through the spray hood, one pot of each specie (pre-emergence phase) was placed on the rear half of the flat. Treatments were removed to the greenhouse after spraying. Watering during the observation period was done only by sub-irrigation.
Two weeks after treatment, pre- and post-emergence injury or control was visually rated, and the results were as shown in the following tables. Pre-emergence data are provided in TABLE III and post-emergence data are provided in TABLE IV, for compounds having the formula illustrated in TABLE I. Correspondingly, pre-emergence and post-emergence data, respectively, are set forth in TABLES V AND VI, for compounds having the formula illustrated in TABLE II.

Barnyard grass (BG) = assay type: in vivo; settings: Echinochloa crus-galli, 336 h, two weeks after treatment
Outline: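 Greenhouse pot-grown barnyard grass seedlings sprayed post-emergence at 8 lbs active compound per acre (some at 4 lbs/acre) in 38 gallons per acre, then sub-irrigated. Injury or control rated visually two weeks after treatment.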

Johnson grass (JG) = assay type: in vivo, Sorgum helepense; settings: Sorghum halepense, 336 h, two weeks after treatment
Outline: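 Greenhouse pot-grown seedlings sprayed post-emergence at 8 lbs compound per acre (some at 4 lbs/acre) in 38 gallons per acre spray volume. Sub-irrigated thereafter. Injury/control rated visually two weeks after treatment.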

Cotton (CT) = assay type: in vivo, Gossypium hirsutum var. DPL smooth leaf; settings: Gossypium hirsutum, post-emergence, 336 h, two weeks after treatment
Outline: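 Cotton (Gossypium hirsutum var. DPL smooth leaf) was grown in 3' plastic pots of potting soil, four seeds per pot, planted at a depth equal to the seed diameter and watered by sub-irrigation. At the stage of expanded cotyledons with the first true leaf 1' long, plants were sprayed post-emergence in a hood with a fixed nozzle over a moving belt. Percent control was rated visually two weeks later.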

## CNC(=O)Nc1nnc(C(F)(F)Cl)s1 [Example 57]
Corn (CN); 8 lb/acre
  pest or weed control at 8966.8 g/ha: 40%
Bean (BN); 8 lb/acre
  pest or weed control at 8966.8 g/ha: 100%
Turnip (TP); 8 lb/acre
  pest or weed control at 8966.8 g/ha: 100%
Crabgrass (CG); 8 lb/acre
  pest or weed control at 8966.8 g/ha: 60%
Amaranth pigweed (PW); 8 lb/acre
  pest or weed control at 8966.8 g/ha: 90%
Barnyard grass (BG); 8 lb/acre
  pest or weed control at 8966.8 g/ha: 40%
Johnson grass (JG); 8 lb/acre
  pest or weed control at 8966.8 g/ha: 40%
Cotton (CT); 8 lb/acre
  pest or weed control at 8966.8 g/ha: 90%

## CNC(=O)Nc1nnc(SCCCCl)s1 [Example 61]
Corn (CN); 2 lb/acre
  pest or weed control: 40%
Corn (CN); 4 lb/acre
  pest or weed control at 4483.4 g/ha: 30%
Bean (BN); 2 lb/acre
  pest or weed control at 2241.7 g/ha: 100%
Bean (BN); 4 lb/acre
  pest or weed control at 4483.4 g/ha: 100%
Turnip (TP); 2 lb/acre
  pest or weed control at 2241.7 g/ha: 100%
Turnip (TP); 4 lb/acre
  pest or weed control at 4483.4 g/ha: 80%
Crabgrass (CG); 2 lb/acre
  pest or weed control: 20%
Crabgrass (CG); 4 lb/acre
  pest or weed control at 4483.4 g/ha: 90%
Amaranth pigweed (PW); 2 lb/acre
  pest or weed control at 2241.7 g/ha: 90%
Amaranth pigweed (PW); 4 lb/acre
  pest or weed control at 4483.4 g/ha: 90%
Barnyard grass (BG); 2 lb/acre
  pest or weed control at 2241.7 g/ha: 40%
Barnyard grass (BG); 4 lb/acre
  pest or weed control at 4483.4 g/ha: 70%
Johnson grass (JG); 2 lb/acre
  pest or weed control: 20%
Johnson grass (JG); 4 lb/acre
  pest or weed control at 4483.4 g/ha: 60%
Cotton (CT); 2 lb/acre
  pest or weed control at 2241.7 g/ha: 100%
Cotton (CT); 4 lb/acre
  pest or weed control at 4483.4 g/ha: 100%
